Values of other authors as cited in patent publication US4168274A, “Production of a peracid and an oxirane” (priority 1975, dated 1979).

Conditions: Table I, carboxylic acids and solvents, symbols .infin., v, s, δ
For `CCCCCC(=O)O` [caproic], the solubility in water is listed as “δ”. In the case of `CCCl` [chloroethane], the solubility in water is listed as “δ”. In the case of `CCCOCCC` [di n-propyl ether], the solubility in water is given as “δ”. In the case of `CCOC(=O)CC` [ethyl propionate], the solubility in water is given as “δ”. In the case of `CCCCCCC(=O)O` [n.heptoic], the solubility in water is listed as “δ”. For `O=[N+]([O-])c1ccccc1` [nitrobenzene], the solubility in water is given as “δ”. In the case of `CC(Cl)CCl` (centres unmarked) [propylene dichloride], the solubility in water is given as “δ”. For `ClC(Cl)C(Cl)Cl` [tetrachloroethane], the solubility in water is listed as “δ”.
